Test results from PubChem BioAssay (NCI).
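Following 48 hours of exposure in 96-well plates, responses at five concentrations were used to interpolate endpoints linearly. Abbreviation: GI50, concentration required for 50% inhibition of growth. TGI: concentration producing complete growth inhibition.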

Assays:
Test in all cases: DTP human tumour cell line panel, 48 h
HCT-15 colon = test system: HCT-15 colon
MALME-3M melanoma = test system: MALME-3M melanoma
MOLT-4 leukemia = test system: MOLT-4 leukemia
NCI-H226 lung = test system: NCI-H226 lung
OVCAR-3 ovarian = test system: OVCAR-3 ovarian
SK-MEL-5 melanoma = test system: SK-MEL-5 melanoma
SNB-19 CNS = test system: SNB-19 CNS
SNB-75 CNS = test system: SNB-75 CNS
SW-620 colon = test system: SW-620 colon
LOX IMVI melanoma = test system: LOX IMVI melanoma

Compound | TGI (HCT-15 colon) | TGI (MALME-3M melanoma) | TGI (MOLT-4 leukemia) | TGI (NCI-H226 lung) | TGI (OVCAR-3 ovarian) | TGI (SK-MEL-5 melanoma) | TGI (SNB-19 CNS) | TGI (SNB-75 CNS) | TGI (SW-620 colon) | GI50 (HCT-15 colon) | GI50 (LOX IMVI melanoma) | TGI (LOX IMVI melanoma) | GI50 (MALME-3M melanoma) | GI50 (MOLT-4 leukemia) | GI50 (NCI-H226 lung) | GI50 (OVCAR-3 ovarian) | GI50 (SK-MEL-5 melanoma) | GI50 (SNB-19 CNS) | GI50 (SW-620 colon) | GI50 (SNB-75 CNS)
COC1OC(CO)C(O)C(NC(=O)N(C)N=O)C1O (stereo not given) | > 100 µM | > 100 µM | > 100 µM | > 100 µM | > 100 µM | > 100 µM | > 100 µM | > 100 µM | > 100 µM |  |  |  |  |  |  |  |  |  |  | 
CO[C@@H]1[C@H](N(C)C(=O)c2ccccc2)C[C@@H]2O[C@]1(C)n1c3ccccc3c3c4c(c5c6ccccc6n2c5c31)C(=O)NC4=O | > 100 µM | > 100 µM | > 100 µM | > 100 µM | > 100 µM | > 100 µM | > 100 µM |  | > 100 µM | 0.766 µM | 0.654 µM | > 100 µM | 0.732 µM | 1.96 µM | 0.303 µM | 6.28 µM | 0.797 µM | > 100 µM | 0.732 µM | 
CCOc1ccc(N=C2NC(=O)C(CC(=O)Nc3ccc(Cl)cc3Cl)S2)cc1 (stereo not given) | > 100 µM | > 100 µM | > 100 µM |  | > 100 µM | > 100 µM | > 100 µM | > 100 µM | > 100 µM |  |  | > 100 µM |  |  |  |  |  |  |  | 
C#CCOCCCC(=O)O | > 100 µM |  | > 100 µM | > 100 µM | > 100 µM | > 100 µM | > 100 µM | > 100 µM | > 100 µM |  |  | > 100 µM |  |  |  |  |  |  |  | 
O=C(Cc1c(C(=O)Nc2ccccc2)sc(C(=O)Nc2ccccc2)c1CC(=O)Nc1ccccc1)Nc1ccccc1 |  | > 100 µM |  | > 100 µM | > 100 µM | > 100 µM | > 100 µM | > 100 µM | > 100 µM |  |  | > 100 µM |  |  |  |  |  |  |  | 
C=CCC1=C2CCCCC2CCC1=O (stereo not given) | > 100 µM | > 100 µM | > 100 µM |  | > 100 µM | > 100 µM | > 100 µM | > 100 µM | > 100 µM |  |  | > 100 µM |  |  |  |  |  |  |  | 
O=P1(O)c2ccccc2CSCc2ccccc21 | > 100 µM |  | > 100 µM | > 100 µM | > 100 µM | > 100 µM | > 100 µM |  | > 100 µM |  |  | > 100 µM |  |  |  |  |  |  |  | 
CC1=CC=C2C(C)(C)CC[C@@H]3OC(=O)[C@H]1[C@]23C |  | > 100 µM | > 100 µM | > 100 µM | > 100 µM | > 100 µM | > 100 µM | > 100 µM | > 100 µM |  |  | > 100 µM |  |  |  |  |  |  |  | 
NC(=S)N/N=C/c1cn(CCCl)c2ccccc12 | > 100 µM | > 100 µM | > 100 µM |  | > 100 µM | 67.4 µM | > 100 µM | 86 µM | > 100 µM |  |  | > 100 µM |  |  |  |  |  |  |  | 
O=C(NCCNc1nccc(-c2c(-c3ccc(F)cc3)nc3sccn23)n1)Nc1cccc(C(F)(F)F)c1 | 47.9 µM |  | > 100 µM | 10.6 µM | 94.5 µM | 3.43 µM | 36.8 µM | 21.7 µM | 32 µM | 4.22 µM | 5.36 µM | 20.7 µM |  | 6.3 µM | 2.38 µM | 17.7 µM | 1.58 µM | 7.93 µM | 13.6 µM | 7.13 µM
COC(=O)Nc1nc2ccc(C(=O)C3CC3)cc2[nH]1 | > 100 µM | > 100 µM | > 100 µM | 30.2 µM | 0.448 µM | 6.23 µM | > 56.5 µM |  | > 100 µM | 0.385 µM | 0.72 µM | > 100 µM | 0.392 µM | 1.25 µM | 0.423 µM | 0.207 µM | 0.385 µM | 0.88 µM | 0.297 µM | 
COC(=O)c1oc([N+](=O)[O-])c(-c2ccccc2)c1-c1ccccc1 |  | > 100 µM | > 100 µM | > 100 µM | > 100 µM | > 100 µM | > 100 µM | > 100 µM | > 100 µM |  |  | > 100 µM |  |  |  |  |  |  |  | 
CCCC(c1cc(C(C)(C)C)c(O)cc1C)c1cc(C(C)(C)C)c(O)cc1C | 11.4 µM | 9.78 µM | 5.41 µM | 4.53 µM | 3.93 µM | 3.26 µM | 16.9 µM |  | 10.2 µM |  |  | 3.43 µM |  |  |  |  |  |  |  | 
O=C(O)COc1ccc2c3c1C(=O)CCC3CO2 (stereo not given) | > 100 µM | > 100 µM | > 100 µM |  | > 100 µM | > 100 µM | > 100 µM |  | > 100 µM |  |  | > 100 µM |  |  |  |  |  |  |  | 
Cc1cc2c(=O)cc(-c3ccc(C(=O)O)cc3)oc2c(C(N)=O)c1C | > 100 µM | > 100 µM | > 100 µM |  | > 100 µM | > 100 µM | > 100 µM | > 100 µM | > 100 µM |  |  | > 100 µM |  |  |  |  |  |  |  | 
CCOC(=O)c1sc(Nc2cc(Cl)ccc2Cl)nc1C | > 100 µM | > 100 µM | > 100 µM | > 100 µM | > 100 µM |  | > 100 µM | > 100 µM | > 100 µM |  |  | > 100 µM |  |  |  |  |  |  |  | 
CC(=O)NS(=O)(=O)c1ccc(-n2nc(-c3ccccc3)cc2-c2cc(O)ccc2O)cc1 | > 100 µM |  | > 100 µM | > 100 µM | > 100 µM | > 100 µM | > 100 µM |  | > 100 µM | > 100 µM | > 100 µM | > 100 µM |  | > 100 µM | > 100 µM | > 100 µM | > 100 µM | > 100 µM | > 100 µM | 
c1ccc2c(CNCCCN3CCN(CCCNCc4cccc5ccccc45)CC3)cccc2c1 | 3.47 µM | 3.56 µM | 2.92 µM | 7.75 µM | 9.53 µM | 3.14 µM |  | 3.15 µM | 3.25 µM |  |  | 2.67 µM |  |  |  |  |  |  |  | 
CCOC(=O)Nc1ccc2c3c(cccc13)-c1ccccc1-2 | > 100 µM |  | > 100 µM | > 100 µM | 8.92 µM | > 100 µM | > 100 µM | > 100 µM | > 100 µM | 4.32 µM | 4.77 µM | > 100 µM |  | 8.5 µM | > 100 µM | 2.72 µM | 3.96 µM | 23.5 µM | 3.92 µM | 8.97 µM
COc1ccc(C(=O)O[C@@H]2CCN3CC[C@H](C)[C@H]23)cc1 | > 100 µM |  | > 100 µM | > 100 µM | > 100 µM | > 100 µM | > 100 µM | > 100 µM | > 100 µM |  |  | > 100 µM |  |  |  |  |  |  |  | 
